This passage reports RP-LC retention time results from the METLIN SMRT retention time set (Domingo-Almenara et al. 2019).

The nature of the data set: gradient 5% acetonitrile 3 min, to 50% in 2 min, to 85% in 15 min, held 3 min, 100 µL/min. To be noted: column: Zorbax Extend-C18 2.1 x 50 mm; eluents: water / acetonitrile, 0.1% formic acid. Summed up: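 The system's dead and dwell volumes were 40 μL and 900 μL, with a Zorbax Extend-C18 column (2.1 × 50 mm, 1.8 μm) run at 100 μL/min in water and acetonitrile containing 0.1% formic acid each. Pure standards were analyzed in mixtures of ~100 molecules by HPLC–quadrupole time-of-flight mass spectrometry in positive and negative ionization mode. Retention time was assigned from computationally picked, manually inspected adduct peaks.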
On to `CCCNC(=O)N1CCCCCC1CN1CCC(OC)CC1` (stereo not drawn), for which the RP-LC retention time stood at 604 s.
In turn, `O=C(Cn1c(=O)n(-c2ccccc2)c2ncccc21)NC1CCCCCC1` yielded an RP-LC retention time of 845 s.
Turning to `O=C(CSc1ccc(N2CCCC(C(=O)NC3CC3)C2)nn1)Nc1ccc(F)c(Cl)c1` (stereo not drawn), the RP-LC retention time stood at 660 s.
In turn, `CC1CN(c2nc3ccccc3nc2C(C#N)C(=O)OCc2ccccc2)CC(C)O1` (stereo not drawn) gave an RP-LC retention time of 1140 s.
Turning to `Cc1ccsc1C(=O)N1CCOc2ccc(N3CCOCC3)cc2C1`, the RP-LC retention time is 762 s.
The compound `COc1ccc(NC(=O)c2cnc3c(c2)c(=O)n(C)c(=O)n3-c2ccc(OC)cc2)cc1` came in with an RP-LC retention time of 859 s.
With `COc1ccc(NC(=O)N2CCC3(CC2)N=C(c2cccc(F)c2)C(=O)N3)c(OC)c1`, the RP-LC retention time was 786 s.
`N#Cc1cnn(-c2cccc(Cl)c2)c1-n1cccc1` showed an RP-LC retention time of 1070 s.
For `CCN(CC)CCN1C(=O)c2ccccc2NC1c1ccc(F)cc1` (stereo not drawn), the RP-LC retention time was found to be 641 s.
Consider `CCOC(=O)N1CCC(NC(=O)c2cc3sccc3n2Cc2ccc(Cl)cc2)CC1`, for which the RP-LC retention time amounted to 1060 s.
On to `Cc1cc(C)c(-c2noc(C)n2)c(NC(=O)c2cc(F)cc(F)c2)n1`, for which the RP-LC retention time was found to be 787 s.
In turn, `COc1ccc(-c2nnc(Cc3nc(-c4ccc(Cl)cc4)no3)o2)cc1` showed an RP-LC retention time of 1070 s.
As to `O=C(Cn1nc2c3cc(F)ccc3ncn2c1=O)Nc1ccccc1F`, the RP-LC retention time is 656 s.
As to `Cc1ccc(N(C)C(=O)CN2C(=O)CCCc3cc(S(=O)(=O)N4CCCCC4)ccc32)cc1`, the RP-LC retention time amounted to 976 s.
`CCn1c(CC2CCN(C(=O)c3nccc4ccccc34)C2)nc2cccnc21` (stereo not drawn): the RP-LC retention time turned out to be 587 s.
For `CCOc1ccc(S(=O)(=O)[C@H]2CS(=O)(=O)C[C@@H]2N2CCN(c3ccccn3)CC2)cc1`, the RP-LC retention time is 640 s.
Take `CCC(=O)N1CCc2cc(-c3ccc(C(=O)NC(C)C(=O)N4CCCCC4)cc3)ccc21` (stereo not drawn): the RP-LC retention time worked out at 846 s.
For `O=C(O)C1CN(CCCP(=O)(O)O)CCN1` (stereo not drawn), the RP-LC retention time is 627 s.
On to `Cc1noc(-c2ccnc(-n3cnc(C(=O)NC(C)c4ccc(F)cc4)c3)c2)n1` (stereo not drawn), for which the RP-LC retention time was determined as 885 s.
As for `CCOc1ccccc1CNC(=O)C1CCN(S(=O)(=O)c2cn(C(C)C)cn2)CC1`, the RP-LC retention time came out at 779 s.
For `CCOc1ccc(NC(=O)Cn2c(CC)nc3c(c2=O)CN(Cc2ccccc2)CC3)cc1`, the RP-LC retention time was determined as 666 s.
Then `Cc1oncc1CN1CCN(C(=O)c2c(F)cccc2F)CC1`, with 562 s; and `O=C(NCc1nnnn1C1CCCCC1)C1CC1`, with 647 s.
Compound `Cc1cc(C)cc(NC(=O)N2CCCC2c2nncn2C2CCCC2)c1` (stereo not drawn) returned an RP-LC retention time of 722 s.
In the case of `Cc1c(-c2cccc(NC(=O)c3cccs3)c2)nc2ncccn12`, the RP-LC retention time is 638 s.
`O=C(c1ccc(F)c(Cl)c1)N1CCCC(c2nnc(-c3ccccc3)o2)C1` (stereo not drawn) yielded an RP-LC retention time of 913 s.
Take `Cn1c(=O)c(N2CCN(C(=O)Cc3ccc(Br)cc3)CC2)nc2cccnc21`: the RP-LC retention time came out at 938 s.
`CNC(=O)C1=CCN(C(=O)NC2CCCC2)CC1` registered an RP-LC retention time of 615 s.
`Cc1ccc(S(=O)(=O)N2CCCCCC2c2nnc(C)o2)c(C)c1` (stereo not drawn) gave an RP-LC retention time of 862 s.
With `Cc1ccc2nc(C(=O)NC(C)c3ccc(F)cc3)cn2c1` (stereo not drawn), the RP-LC retention time is 670 s.
Then `CC(NC(=O)c1ccc(N(C)C)cc1)C(=O)N1CCCc2ccccc21` (stereo not drawn), with 846 s.
In the case of `CCCNC(=O)Cc1c(C)n(C)c2nc(-c3ccccc3)nn2c1=O`, the RP-LC retention time was 660 s.
For `O=C(CCC1CCCN(S(=O)(=O)c2ccccc2F)C1)NCc1cccs1` (stereo not drawn), the RP-LC retention time was determined as 908 s.
